How the values were obtained:
Assay in all cases: KinomeScan profiling
Type in all cases: binding
PRKD1 = molecular target: T1, PRKD1 (Homo sapiens, UniProt Q15139); conditions: PRKD1, 1 μM; read-out: % control
T1 sequence (Q15139 1-912): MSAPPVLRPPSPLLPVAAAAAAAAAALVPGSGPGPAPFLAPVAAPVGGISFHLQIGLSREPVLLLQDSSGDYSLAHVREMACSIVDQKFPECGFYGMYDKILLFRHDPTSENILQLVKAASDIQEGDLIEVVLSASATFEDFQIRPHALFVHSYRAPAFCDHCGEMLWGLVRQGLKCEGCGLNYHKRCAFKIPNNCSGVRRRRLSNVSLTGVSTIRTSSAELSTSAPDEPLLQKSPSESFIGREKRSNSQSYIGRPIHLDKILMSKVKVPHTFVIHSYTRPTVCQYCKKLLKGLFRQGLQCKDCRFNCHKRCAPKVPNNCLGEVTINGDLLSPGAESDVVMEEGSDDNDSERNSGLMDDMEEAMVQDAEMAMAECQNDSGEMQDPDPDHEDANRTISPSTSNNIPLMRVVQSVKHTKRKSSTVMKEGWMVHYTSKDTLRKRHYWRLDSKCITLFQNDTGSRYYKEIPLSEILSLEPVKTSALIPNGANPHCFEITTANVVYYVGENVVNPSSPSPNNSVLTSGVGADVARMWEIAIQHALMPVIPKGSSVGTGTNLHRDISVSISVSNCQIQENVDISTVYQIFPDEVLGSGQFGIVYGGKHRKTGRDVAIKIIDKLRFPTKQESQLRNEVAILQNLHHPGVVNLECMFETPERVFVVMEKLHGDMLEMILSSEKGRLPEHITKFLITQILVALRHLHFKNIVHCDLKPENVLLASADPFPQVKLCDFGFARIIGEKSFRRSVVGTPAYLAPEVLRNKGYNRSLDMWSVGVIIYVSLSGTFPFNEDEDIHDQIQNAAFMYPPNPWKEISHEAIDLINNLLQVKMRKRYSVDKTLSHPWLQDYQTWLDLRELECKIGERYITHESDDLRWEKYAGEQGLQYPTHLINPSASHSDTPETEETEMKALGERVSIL
Outline: (§1)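 The panel spans 468 kinases, and each inventive compound was applied at 1 μM from DMSO. Lower % control means stronger binding; the activity cut-off is set at less than 35%.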

EGFR(G719S) = EGFR(G719S) (Homo sapiens, UniProt P00533, G719S); conditions: read-out: % control
Outline: as §1

PRKX = molecular target: T2, PRKX (Homo sapiens, UniProt P51817); conditions: read-out: % control
T2 sequence (P51817 1-358): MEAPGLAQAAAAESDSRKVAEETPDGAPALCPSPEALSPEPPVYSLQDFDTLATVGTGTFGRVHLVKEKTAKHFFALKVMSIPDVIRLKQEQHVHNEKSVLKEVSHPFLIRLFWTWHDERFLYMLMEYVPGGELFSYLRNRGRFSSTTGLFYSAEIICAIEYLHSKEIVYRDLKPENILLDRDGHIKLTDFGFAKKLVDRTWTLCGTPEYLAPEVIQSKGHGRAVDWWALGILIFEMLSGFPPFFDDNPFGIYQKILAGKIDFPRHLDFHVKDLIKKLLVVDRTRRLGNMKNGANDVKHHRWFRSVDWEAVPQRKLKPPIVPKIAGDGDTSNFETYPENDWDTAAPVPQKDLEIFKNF
Outline: as §1

AURKC = molecular target: T3, AURKC (Homo sapiens, UniProt Q9UQB9); conditions: read-out: % control
T3 construct: purchased KinomeScan®
T3 sequence (Q9UQB9 1-309): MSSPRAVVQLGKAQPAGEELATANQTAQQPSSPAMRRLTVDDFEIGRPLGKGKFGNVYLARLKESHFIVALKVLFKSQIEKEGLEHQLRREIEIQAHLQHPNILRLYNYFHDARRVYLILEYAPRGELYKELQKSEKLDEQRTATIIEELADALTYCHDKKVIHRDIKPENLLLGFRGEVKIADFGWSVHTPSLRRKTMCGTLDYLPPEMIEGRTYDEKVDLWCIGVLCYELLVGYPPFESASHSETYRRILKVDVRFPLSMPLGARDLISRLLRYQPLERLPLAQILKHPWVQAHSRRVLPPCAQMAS
Outline: as §1

ROCK2 = ROCK2 (Homo sapiens, UniProt O75116); conditions: ROCK2, 1 μM; read-out: % control
Outline: as §1

CAMK4 = molecular target: T4, CAMK4 (Homo sapiens, UniProt Q16566); conditions: CAMK4, 1 μM; read-out: % control
T4 sequence (Q16566 1-473): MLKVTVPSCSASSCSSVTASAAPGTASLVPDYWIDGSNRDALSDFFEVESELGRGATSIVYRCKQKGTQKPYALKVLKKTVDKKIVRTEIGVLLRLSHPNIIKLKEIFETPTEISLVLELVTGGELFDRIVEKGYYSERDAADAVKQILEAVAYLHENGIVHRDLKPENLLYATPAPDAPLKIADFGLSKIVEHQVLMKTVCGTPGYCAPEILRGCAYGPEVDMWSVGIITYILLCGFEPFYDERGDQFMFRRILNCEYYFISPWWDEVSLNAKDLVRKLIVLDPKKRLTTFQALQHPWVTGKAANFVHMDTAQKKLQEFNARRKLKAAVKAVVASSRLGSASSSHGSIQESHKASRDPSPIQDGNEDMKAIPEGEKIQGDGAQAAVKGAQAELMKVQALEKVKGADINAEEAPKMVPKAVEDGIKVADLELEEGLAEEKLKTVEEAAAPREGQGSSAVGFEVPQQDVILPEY
Outline: as §1

Chain of ROCK2 (O75116 whole entry): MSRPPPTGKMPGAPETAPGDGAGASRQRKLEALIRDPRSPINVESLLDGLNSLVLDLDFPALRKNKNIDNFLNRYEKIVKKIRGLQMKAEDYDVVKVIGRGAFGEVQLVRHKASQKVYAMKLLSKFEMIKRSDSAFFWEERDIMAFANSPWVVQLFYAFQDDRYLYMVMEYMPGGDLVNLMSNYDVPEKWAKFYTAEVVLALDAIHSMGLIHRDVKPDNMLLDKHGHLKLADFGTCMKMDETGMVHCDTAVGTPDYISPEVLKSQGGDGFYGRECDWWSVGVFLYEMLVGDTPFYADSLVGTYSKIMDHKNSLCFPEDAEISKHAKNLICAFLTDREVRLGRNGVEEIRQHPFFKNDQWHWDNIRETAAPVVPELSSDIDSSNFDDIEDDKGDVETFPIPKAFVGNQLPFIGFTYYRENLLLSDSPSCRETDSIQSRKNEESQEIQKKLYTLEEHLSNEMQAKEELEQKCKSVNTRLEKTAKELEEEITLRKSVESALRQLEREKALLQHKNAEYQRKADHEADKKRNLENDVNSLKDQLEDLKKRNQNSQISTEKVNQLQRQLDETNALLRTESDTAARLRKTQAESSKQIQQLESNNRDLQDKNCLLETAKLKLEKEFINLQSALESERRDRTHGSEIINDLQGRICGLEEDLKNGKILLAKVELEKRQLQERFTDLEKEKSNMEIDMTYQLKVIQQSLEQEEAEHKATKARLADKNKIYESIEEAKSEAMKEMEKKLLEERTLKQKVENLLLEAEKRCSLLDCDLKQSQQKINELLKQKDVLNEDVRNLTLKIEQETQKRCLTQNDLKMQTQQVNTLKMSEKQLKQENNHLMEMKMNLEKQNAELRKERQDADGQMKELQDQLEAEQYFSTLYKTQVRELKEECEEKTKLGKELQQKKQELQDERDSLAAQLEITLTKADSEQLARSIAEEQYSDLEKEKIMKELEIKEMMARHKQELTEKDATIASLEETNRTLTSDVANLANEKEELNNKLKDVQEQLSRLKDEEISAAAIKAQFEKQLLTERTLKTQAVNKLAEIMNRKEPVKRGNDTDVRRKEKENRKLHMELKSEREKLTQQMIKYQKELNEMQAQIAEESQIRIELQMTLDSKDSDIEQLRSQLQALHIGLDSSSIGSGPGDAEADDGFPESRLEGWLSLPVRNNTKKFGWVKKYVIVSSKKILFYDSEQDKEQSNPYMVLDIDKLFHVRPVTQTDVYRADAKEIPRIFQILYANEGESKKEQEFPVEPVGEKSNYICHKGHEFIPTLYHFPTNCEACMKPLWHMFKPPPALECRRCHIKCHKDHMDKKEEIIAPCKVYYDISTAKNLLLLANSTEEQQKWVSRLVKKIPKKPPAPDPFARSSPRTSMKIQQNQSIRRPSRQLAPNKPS
Chain of EGFR(G719S) (P00533 25-1210 G719S): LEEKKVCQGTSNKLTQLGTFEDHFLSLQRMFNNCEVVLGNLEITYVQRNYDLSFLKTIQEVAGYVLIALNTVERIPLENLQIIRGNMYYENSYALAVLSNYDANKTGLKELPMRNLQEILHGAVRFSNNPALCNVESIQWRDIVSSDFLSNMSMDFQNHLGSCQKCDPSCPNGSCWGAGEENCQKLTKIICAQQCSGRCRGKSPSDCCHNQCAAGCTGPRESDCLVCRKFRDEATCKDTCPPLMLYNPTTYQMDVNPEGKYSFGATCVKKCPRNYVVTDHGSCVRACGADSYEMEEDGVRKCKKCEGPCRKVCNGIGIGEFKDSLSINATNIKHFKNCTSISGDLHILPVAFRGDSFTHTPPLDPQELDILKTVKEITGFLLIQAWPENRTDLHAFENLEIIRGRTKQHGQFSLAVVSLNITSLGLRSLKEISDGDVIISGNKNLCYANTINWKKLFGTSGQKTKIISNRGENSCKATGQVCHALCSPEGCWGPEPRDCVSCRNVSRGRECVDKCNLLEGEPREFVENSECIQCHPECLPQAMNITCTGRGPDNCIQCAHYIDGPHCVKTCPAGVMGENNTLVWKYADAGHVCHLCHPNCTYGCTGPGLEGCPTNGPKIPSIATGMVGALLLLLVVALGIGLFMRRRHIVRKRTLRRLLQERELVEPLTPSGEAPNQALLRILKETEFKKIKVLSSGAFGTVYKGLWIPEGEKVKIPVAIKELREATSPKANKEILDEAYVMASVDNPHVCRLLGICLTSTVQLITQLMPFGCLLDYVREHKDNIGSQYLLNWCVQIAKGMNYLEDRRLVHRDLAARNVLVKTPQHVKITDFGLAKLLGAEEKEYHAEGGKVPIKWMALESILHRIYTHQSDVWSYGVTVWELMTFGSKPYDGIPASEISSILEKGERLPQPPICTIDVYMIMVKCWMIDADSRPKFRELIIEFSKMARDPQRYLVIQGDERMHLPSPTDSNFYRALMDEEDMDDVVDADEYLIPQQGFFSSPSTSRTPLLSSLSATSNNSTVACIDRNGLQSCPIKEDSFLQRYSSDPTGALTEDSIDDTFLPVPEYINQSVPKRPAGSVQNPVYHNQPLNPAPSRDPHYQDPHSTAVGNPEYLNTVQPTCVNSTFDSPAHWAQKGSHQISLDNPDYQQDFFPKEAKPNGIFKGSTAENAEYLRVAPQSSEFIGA

Row | SMILES | remaining binding at 1 µM (PRKD1) [%] | remaining binding at 1 µM (EGFR(G719S)) [%] | remaining binding at 1 µM (PRKX) [%] | remaining binding at 1 µM (AURKC) [%] | remaining binding at 1 µM (ROCK2) [%] | remaining binding at 1 µM (CAMK4) [%]
1 | CNc1c(-c2cnn([C@H]3CCN(C(C)=O)C[C@@H]3F)c2)cnc2[nH]cc(Cl)c12 [Compound 77, 1-((3S,4S)-4-(4-(3-chloro-4-(methylamino)-1H-pyrrolo[2,3-b]pyridin-5-yl)-1H-pyrazol-1-yl)-3-fluoropiperidin-1-yl)ethan-1-one] | 58 | 100 | 100 | 26 | 8.9 | 100
2 | O=C(c1ccc(-c2cnc3[nH]cc(Cl)c3c2NC2CCCC2)cc1)N1CCC(N2CCOCC2)CC1 [Compound 101, (4-(3-chloro-4-(cyclopentylamino)-1H-pyrrolo[2,3-b]pyridin-5-yl)phenyl)(4-morpholinopiperidin-1-yl)methanone] | 48 | 100 | 82 | 71 | 81 | 87
3 | CNc1c(-c2ccc(C(=O)N3CCC(N4CCOCC4)CC3)cc2)cnc2[nH]cc(Cl)c12 [Compound 96, (4-(3-chloro-4-(methylamino)-1H-pyrrolo[2,3-b]pyridin-5-yl)phenyl)(4-morpholinopiperidin-1-yl)methanone] | 19 | 100 | 100 | 49 | 1.4 | 100
